Structures are written as SMILES.

Data on four molecules can be found in patent US20090181904A1, “METHOD FOR REGULATING NUTRIENT ABSORPTION WITH GINSENOSIDES” (priority 2005, published 2009).

Assay type in all cases: cell-based, human
In one test the test system is Caco2 cells. As to the kind of experiment: Folate uptake assay (3H-folate uptake in Caco2 cells). The following applies: compound 0.1 μM; for Transport rate (folate uptake): 2 days pretreatment, 5 μM folate, pH 6.0. The protocol:
The Caco2 cells were subjected to folate uptake test in a manner similar to that described in the glucose uptake assay in Example 1 above. In the folate uptake test, the Caco2 cells were pretreated with the culture medium containing 5% FBS and purified ginsenosides at a concentration of […] for 2 days before the cells were cultured in a folate uptake buffer (Hank's balanced salt solution, supplemented with 0.14 g/L CaCl2, 0.1 g/L MgCl2, and 0.1 g/L MgSO4, pH 6.0) for 1 hour. The buffer was then aspirated, and uptake was initiated by adding 0.2 mL of fresh folate uptake buffer containing 2 μCi/mL radioactive folate (3,5,7,9-^3H-folic acid, 25 mCi/mmol, ARC) and cold, unlabeled folate giving a final folate concentration of 5 μM. Folate uptake was terminated by removing the uptake buffer at designated time intervals. The cells were then washed three times with ice-cold PBS and lysed by adding 0.2 mL of 0.2 N NaOH, followed by incubating at 65° C. for 20 min. Intracellular uptake of ^3H-folate was determined by transferring 20 μL of the cell lysate to the filter-bottomed UniFilter plates (Perkin-Elmer) and counting as described previously in Example 1. The amount of folate accumulated in the cells was calculated and normalized to protein concentration, and uptake rate was expressed as picomoles of folate per minutes per milligram of cell protein (pmol/min/mg). Protein concentration was determined by a standard Bicinchoninic acid (BCA) protein assay as described above.

The test system of a further test is Caco2 cell monolayer. As to the kind of experiment: Glucose absorption assay (transport across Caco2 monolayer in transwell, 14C-glucose). The following applies: for Transport rate (glucose): 2 days pretreatment, 25 mM glucose. The method, then:
For glucose absorption assay, 0.3 mL (10^5 cell/ml) of Caco2 cells were seeded into the apical chamber of each transwell and the basolateral chamber was added with 1 ml of culture medium (as indicated above). Costar transwell inserts (No. 3414, Corning Incorporated, NY, USA) separate each well in 24-well plates into an apical chamber (defined as a chamber above the insert) and a basolateral chamber (defined as a chamber below the insert). The culture medium in each transwell was changed every 2 days in both of the apical and basolateral chambers. To ensure the integrity of tight junction of Caco2 monolayer membrane formed in the transwell, a Trans-Epithelial Electrical Resistance (TEER) assay was conducted using Millicell®-ERS (Millipore EVOM-6; World Precision Instrument, Sarasota, Fla., USA) to measure the TEER between apical and basolateral chambers of the transwell. As the measured TEER reached 300 to 450 Ωcm^2 with the presence of differentiated brush border on the […] side of the cell on the 14th to 21st day of the culture, the Caco2 monolayer was ready for the glucose absorption test. The TEER values were taken before, during, and after each experiment to justify consistency of the data collected.
Glucose absorption was initiated by replacing the culture medium in the basolateral chamber with fresh glucose absorption buffer and the culture medium in the apical chamber with 0.2 mL of the glucose absorption buffer containing 2 μCi/ml of radioactive D-[^14C]-glucose (60 Ci/mmol, American Radiolabeled Chemicals, ARC, St. Louis, Mo., USA) and unlabeled cold glucose to give glucose at a final concentration of 25 mM. A series of five 10-μL samples were taken from the basolateral chamber at every 5 or 10 minute intervals. In order to maintain the constant buffer volume, same amount of sample buffer were added back to the basolateral chamber after withdrawn of each sample. The samples were transferred to the filter-bottomed UniFilter plates (Perkin-Elmer, Wellesley, Mass., USA) and dried in a vacuum oven at 37° C. The bottom of the UniFilter plate was sealed and 25 μL of the counting solution were added into each well. Adhesive plate sealers were used in place of the lids and radioactivity of each sample was counted using the microplate liquid scintillation counter (TopCount, Packard NXT, Packard BioScience Company, Meriden, Conn., USA). The effect of test compounds on glucose absorption was expressed as the nmoles of glucose accumulated in the basolateral chamber with respect to time in minutes (nmol/min). The glucose absorption rate was obtained by calculating the slope of the straight line from the time zero to the end point of the graphic data of each figure.
On the technique in general: Passage across Caco-2 layers is used to estimate intestinal permeability.

In the next test the test system is Caco-2 cell monolayer. As to the kind of experiment: Arginine absorption assay (transport across Caco-2 monolayer, 3H-arginine). The note with it: for Transport rate (arginine): 10 mM L-arginine. The method, then:
In measuring transport of arginine across the Caco-2 cell monolayer, both sides of the transwells were washed with arginine incubation buffer consisting of: 137 mM NaCl, 10 mM Hepes, 0.3 mM NaH2PO4, 0.3 mM K2HPO4, 5.4 mM KCl, 2.8 mM CaCl2, 1 mM MgSO4, 10 mM glucose, adjusted to pH 7.4. Then, the cell layer was pre-incubated in the incubation buffer at 37° C. for 1 h. The volumes of incubation buffer were 0.2 mL and 0.9 mL in the apical and basolateral chambers, respectively. The cells were replaced with fresh incubation medium in both chambers prior to the transport experiment. The transport experiment was initiated by replacing the incubation solution on the apical side with solution containing 10 mM of L-arginine in which 0.125 μCi/mL of L-[^3H]-arginine was included. At designated time intervals, 10 μL-solution samples were removed from the basolateral side and radioactivity of each sample was counted using a microplate liquid scintillation counter (TopCount, Packard NXT). During the experiment, when a 10 μL-solution sample was removed from the basolateral side every time, 10 μL buffer was supplemented to keep the volume constant. The uptake of [^3H]-mannitol was used to correct for nonspecific transport of molecules across the monolayer membrane. Results were expressed as the nanomoles of arginine transport across the Caco-2 cell monolayers with respect to time in minutes (nmol/min).

Take `CC(C)=CCC[C@](C)(O)C1CC[C@]2(C)C1C(O)CC1[C@@]3(C)CCC(O)C(C)(C)C3C(OC3OC(CO)C(O)C(O)C3O)C[C@]12C` (some centres unmarked) [Rh1, ginsenoside Rh1]: the “Percentage (folate uptake, control = 100)” value in the test on Caco2 cells came out at 49.36%. The “folate uptake versus non-treated control (in words, FIG. 5)” value in the test on Caco2 cells is on record as “decreased”. The “Transport rate (folate uptake)” value in the test on Caco2 cells stood at 0.8494 ± 0.453 pmol/mg/min. For the same molecule, the “effect on glucose absorption (in words)” value with Caco2 cell monolayer is reported as “inhibitory effect”. Also, the “Percentage (glucose transport, control = 100)” value worked out at 62.20% in the test on Caco2 cell monolayer (compound 0.01 μM), 74.86% in the test with Caco2 cell monolayer (compound 0.1 μM) and 61.02% in the test on Caco2 cell monolayer (compound 1 μM). Further, the “Transport rate (glucose)” value in the test with Caco2 cell monolayer (compound 0.01 μM) is reported as 1.3568 ± 0.1090 nmol/min; in the test on Caco2 cell monolayer (compound 0.1 μM), 1.6329 ± 0.1976 nmol/min; with Caco2 cell monolayer (compound 1 μM), 1.3310 ± 0.8356 nmol/min. The results for the “Percentage (arginine transport, control = 100)” value in the test with Caco-2 cell monolayer (compound 0.01 μM), with Caco-2 cell monolayer (compound 0.1 μM) and with Caco-2 cell monolayer (compound 1 μM) were 105.56%, 109.13% and 134.02%, respectively. Further, the “Transport rate (arginine)” value is recorded as 11.2792 ± 0.7768 nmol/min with Caco-2 cell monolayer (compound 0.01 μM), 11.6615 ± 0.8085 nmol/min in the test on Caco-2 cell monolayer (compound 0.1 μM) and 14.3209 ± 0.7418 nmol/min in the test with Caco-2 cell monolayer (compound 1 μM).

Turning to `CC(C)=CCC[C@](C)(O[C@@H]1O[C@H](CO[C@@H]2O[C@H](CO)[C@@H](O)[C@H](O)[C@H]2O)[C@@H](O)[C@H](O)[C@H]1O)[C@H]1CC[C@]2(C)[C@@H]1[C@H](O)C[C@@H]1[C@@]3(C)CC[C@H](O[C@@H]4O[C@H](CO)[C@@H](O)[C@H](O)[C@H]4O[C@@H]4O[C@H](CO)[C@@H](O)[C@H](O)[C@H]4O)C(C)(C)[C@@H]3CC[C@]12C` [Rb1, ginsenoside Rb1], in the test with Caco2 cells, the “Percentage (folate uptake, control = 100)” value amounted to 108.72%; the “folate uptake versus non-treated control (in words, FIG. 5)” value is “increased folate uptake”; the “Transport rate (folate uptake)” value amounted to 1.8710 ± 0.0320 pmol/mg/min. Moreover, in the test on Caco2 cell monolayer (compound 0.01 μM), the “Percentage (glucose transport, control = 100)” value was found to be 102.26% and the “Transport rate (glucose)” value came out at 2.2306 ± 0.1034 nmol/min. Besides, in the test on Caco2 cell monolayer (compound 0.1 μM), the “Percentage (glucose transport, control = 100)” value came out at 128.85% and the “Transport rate (glucose)” value was 2.8107 ± 0.1982 nmol/min. Besides, the “glucose transport rate (in words, FIG. 1)” value in the test on Caco2 cell monolayer (compound 0.1 μM to 5 μM) is on record as “increased”. In the test on Caco2 cell monolayer (compound 1 μM), the “Percentage (glucose transport, control = 100)” value is listed as 157.01% and the “Transport rate (glucose)” value came out at 3.4250 ± 0.4805 nmol/min. Besides, in the test on Caco-2 cell monolayer (compound 0.01 μM), the “Percentage (arginine transport, control = 100)” value worked out at 90.30% and the “Transport rate (arginine)” value is listed as 9.6487 ± 0.9377 nmol/min. Moreover, in the test with Caco-2 cell monolayer (compound 0.1 μM), the “Percentage (arginine transport, control = 100)” value is listed as 111.08% and the “Transport rate (arginine)” value amounted to 11.8699 ± 1.9300 nmol/min. In addition, in the test with Caco-2 cell monolayer (compound 1 μM), the “Percentage (arginine transport, control = 100)” value worked out at 151.12% and the “Transport rate (arginine)” value was found to be 16.1484 ± 0.6228 nmol/min.

In the case of `CC(C)=CCC[C@](C)(O[C@@H]1O[C@H](CO)[C@@H](O)[C@H](O)[C@H]1O)[C@H]1CC[C@]2(C)[C@@H]1[C@H](O)C[C@@H]1[C@@]3(C)CC[C@H](O)C(C)(C)[C@@H]3[C@@H](O)C[C@]12C` [GF1, ginsenoside F1], the “Percentage (glucose transport, control = 100)” value was 141.12% in the test on Caco2 cell monolayer (compound 0.01 μM), 153.80% in the test with Caco2 cell monolayer (compound 0.1 μM) and 150.65% with Caco2 cell monolayer (compound 1 μM). The figures for the “Transport rate (glucose)” value in the test on Caco2 cell monolayer (compound 0.01 μM), with Caco2 cell monolayer (compound 0.1 μM) and with Caco2 cell monolayer (compound 1 μM) were 3.0783 ± 0.9550 nmol/min, 3.3551 ± 0.3248 nmol/min and 3.2862 ± 0.3429 nmol/min, respectively. The results for the “Percentage (arginine transport, control = 100)” value in the test with Caco-2 cell monolayer (compound 0.01 μM), with Caco-2 cell monolayer (compound 0.1 μM) and with Caco-2 cell monolayer (compound 1 μM) were 126.74%, 118.73% and 97.06%, respectively. Moreover, the “Transport rate (arginine)” value is 13.5425 ± 1.8630 nmol/min in the test on Caco-2 cell monolayer (compound 0.01 μM), 12.6865 ± 0.2964 nmol/min in the test on Caco-2 cell monolayer (compound 0.1 μM) and 10.3711 ± 0.6574 nmol/min in the test on Caco-2 cell monolayer (compound 1 μM).

Consider `CC(C)=CCC[C@](C)(O)[C@H]1CC[C@]2(C)[C@@H]1[C@H](O)C[C@@H]1[C@@]3(C)CC[C@H](O)C(C)(C)[C@@H]3[C@@H](O)C[C@]12C` [Rga, 20(S)-protopanaxatriol], for which the “Percentage (glucose transport, control = 100)” value with Caco2 cell monolayer (compound 0.01 μM) stood at 116.69%; with Caco2 cell monolayer (compound 0.1 μM), 167.15%; in the test on Caco2 cell monolayer (compound 1 μM), 104.01%. The “Transport rate (glucose)” value with Caco2 cell monolayer (compound 0.01 μM) turned out to be 2.5454 ± 0.7808 nmol/min; with Caco2 cell monolayer (compound 0.1 μM) it was 3.6462 ± 0.4105 nmol/min; in the test on Caco2 cell monolayer (compound 1 μM), 2.2689 ± 0.2598 nmol/min. The “Percentage (arginine transport, control = 100)” value with Caco-2 cell monolayer (compound 0.01 μM) came to 118.16%; with Caco-2 cell monolayer (compound 0.1 μM) it was 100.66%; in the test on Caco-2 cell monolayer (compound 1 μM), 95.38%. The “Transport rate (arginine)” value in the test with Caco-2 cell monolayer (compound 0.01 μM) was determined as 12.6265 ± 0.9875 nmol/min; in the test with Caco-2 cell monolayer (compound 0.1 μM), 10.7555 ± 0.4532 nmol/min; with Caco-2 cell monolayer (compound 1 μM), 10.1920 ± 1.2390 nmol/min.
